Reference: patent publication US5171864A, “Di-(5-hydroxy-2(5H)-2-oxo-4-furyl)methyl-alpha,omega alkane-dioates and N,N-bis-(5-hydroxy-2(5H)-2-oxo-4-furyl)methyl-alpha,omega-dialkanoic acid amides as anti-inflammatory agents” (Allergan, Inc., priority 1991, dated 1992)
Like-named read-outs stand apart in the source and are kept apart here.

How the values were obtained:
[1] = target: bee venom phospholipase A2 (Apis mellifera, UniProt P00630); experiment: biochemical; details: read-out: PLA2 IC50
Sequence of bee venom phospholipase A2 (P00630 34-167 limits assumed): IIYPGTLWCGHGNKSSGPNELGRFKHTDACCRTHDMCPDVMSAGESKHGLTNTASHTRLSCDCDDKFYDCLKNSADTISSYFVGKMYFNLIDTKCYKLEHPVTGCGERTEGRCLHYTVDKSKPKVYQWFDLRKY

[2] = target: phosphoinositide-specific phospholipase C; experiment: Inhibition of phosphoinositide-specific phospholipase C (PLC); assay type: biochemical; details: procedure of Bennett et al, Molecular Pharmacology 32:587-593 (1987)
Source text: Inhibition of Phosphoinositide-specific Phospholipase C
The effect of compounds of this invention on phosphoinositide-specific phospholipase C may be determined by procedures described by Bennett et al, Molecular Pharmacology 32:587-593 (1987).

Row | Compound | IC50 [1] [nM] | IC50 [2] [µM] | IC50 ([1]; pH 7.4) [nM]
1 | O=C1C=C(COC(=O)CCCCCCCCCCC(=O)OCC2=CC(=O)OC2O)C(O)O1 (stereo not shown) [Compound 1, Di-[5-hydroxy-2(5H)-2-oxo-4-furyl]methyl dodecan-1,12-dioate] | 70 | > 100 | 
2 | CC(C)(C)C(=O)OC1OC(=O)C=C1COC(=O)CCCCCCCCCCC(=O)OCC1=CC(=O)OC1OC(=O)C(C)(C)C (stereo not shown) [Compound 2, Di-[5tert-butanoyloxy-2(5H)-furano-4yl]methyl dodecan-1,12-dioate] |  | > 100 | > 1000
3 | O=C(CCCCCCCCCCC(=O)NCC1=CC(=O)OC1OC(=O)Nc1ccccc1)NCC1=CC(=O)OC1O (stereo not shown) [Compound 4, N-(5-Hydroxy-2(5H)2-oxo-4-furyl)methyl-N'-(5-phenylcarbamoyloxy-2(5H) 2-oxo-4-furyl)methyl-1,12-dodecanamide] |  | > 100 | > 1000
4 | O=C(CCCCCCCCCCC(=O)NCC1=CC(=O)OC1OC(=O)Nc1ccccc1)NCC1=CC(=O)OC1OC(=O)Nc1ccccc1 (stereo not shown) [Compound 5, N,N'-bis(5-phenylcarbamoyloxy-2(5H)2-oxo-4-furyl)methyl-1.12-dodeca] |  | > 100 | > 1000
5 | O=C(CCCCCCCCCCC(=O)NCC1=CC(=O)OC1O)NCC1=CC(=O)OC1O (stereo not shown) [Compound 3, N,N'-Bis(5-hydroxy-2(5H)-2-oxo-4-furyl)methyl-1,12-dodecanoic acid amide] | 30 | > 100 | 
